The numbers were not newly measured in publication PMC11584006, “Structural characterization and AlphaFold modeling of human T cell receptor recognition of NRAS cancer neoantigens” (Science Advances, 2024), which cites them from elsewhere.

The subject of the data set is T cells transduced with these TCRs. The following applies: for peptide concentration at which TCR-transduced T cells can be activated: APCs pulsed with peptide, wild-type tested at >1000-fold higher concentrations. From the text: KRAS is the most highly mutated RAS isoform across cancers, accounting for ~85% of all RAS mutations with especially high frequencies in pancreatic and colorectal cancers ([12], [13]). However, NRAS mutations dominate in melanomas, with mutations at position 61 appearing in ~20% of patients ([14]). The two most frequent mutations are Q61K and Q61R ([15]). Mutant NRAS melanomas have more aggressive clinical features and poorer outcomes compared to nonmutant NRAS melanomas ([16]–[18]). […] This HLA-A*01:01–restricted TCR recognizes the NRAS^Q61K and NRAS^Q61R neoepitopes using gene segments TRDV1 and TRAJ27-1 for the α chain and TRBV27 and TRBJ2-5 for the β chain. […] Recombinant TCR and pMHC proteins were expressed by in vitro folding from bacterial inclusion bodies. Biotinylated wild-type NRAS–HLA-A1, NRAS ...

Consider “ILDTAGKEEY [NRAS^Q61K, NRAS^Q61K peptide ([…]), residues 55 to 64]”, for which the “peptide concentration at which TCR-transduced T cells can be activated” value (“peptide concentration” for short) is recorded as “subnanomolar”.
Turning to “ILDTAGQEEY [wild-type NRAS peptide, reference compound]”, the “peptide concentration” value is reported as “do not respond”.
As for “ILDTAGREEY [NRAS^Q61R, NRAS^Q61R peptide ([…])]”, the “peptide concentration” value is “subnanomolar”. In addition, the “concentration of peptide required for recognition (peptide titrations), relative to NRAS^Q61K” value (peptide titrations, HLA-A*01:01) is “a higher concentration”.
